Test results reported in US20220168392A1 (priority 2019, published 2022).
Several values for one entry are separate records, joined by “and”; a condition that tells them apart may be missing. Equal values may be shown once. Square brackets hold non-standard residues; d marks the D form. * marks the point of attachment. 2Nal = N[C@@H](Cc1ccc2ccccc2c1)C(=O)O; Propionyl = CCC(=O)*; Sar = CNCC(=O)O

What was measured:
[1] = tested on: CD2F1 male mice exposed to TBI; assay: 30-day survival after total body irradiation (TBI) in CD2F1 mice; assay type: in vivo, mouse; conditions: for Survival Differential (Treatment-Vehicle) / Survival treatment: CD2F1 M; for Dose Reduction Factor: male CD2F1
[2] = tested on: CD21F1 male mice exposed to TBI; assay: Dose reduction factor (DRF) and long-term survival study after TBI; assay type: in vivo, mouse
Text: Methods: CD21F1 male mice were used in a DRF (dose reduction factor) study to determine LD50/30 for animals administered with RWJ-800088 or it's vehicle (saline). This included irradiating cohorts of 24 animals at various total body irradiation (TBI) doses (Saline: 7.5, 8.0, 8.5, 9.0, 9.5, and 10 Gy; RWJ-800088: 10.5, 11.0, 11.5, 11.75, 12, and 12.5 Gy). Following the 30 day survival study, surviving animals were monitored for up to 1 year with planned collection points at 6 months and 1 year.
RWJ-800088 administration timing and doses: RWJ-800088 was administered […] at a dose of 1 mg/kg 24 h prior to irradiation.

[3] = 10.5 Gy, 1 mg/kg single dose, Pre −24 hr
[4] = 10.5 Gy, 3 mg/kg single dose, Pre −24 hr, listed as TPOm, 3 mg/kg
[5] = 11 Gy, 1 mg/kg single dose, Pre −2 hr
[6] = 11 Gy, 1 mg/kg single dose, Pre −12 hr
[7] = 11 Gy, 1 mg/kg single dose, Pre −24 hr, listed as TPOm, 1 mg/kg
[8] = 11.5 Gy, 3 mg/kg single dose, Pre −24 hr
[9] = 11.75 Gy, 3 mg/kg single dose, Pre −24 hr
[10] = 12 Gy, 1 mg/kg single dose, Pre −24 hr
[11] = 12 Gy, 3 mg/kg single dose, Pre −24 hr
[12] = 12.5 Gy, 1 mg/kg single dose, Pre −24 hr
[13] = 12.5 Gy, 3 mg/kg single dose, Pre −24 hr
[14] = 13 Gy, 1 mg/kg single dose, Pre −24 hr
[15] = 13.5 Gy, 1 mg/kg single dose, Pre −24 hr
[16] = 14 Gy, 1 mg/kg single dose, Pre −24 hr
[17] = Group 7, 10.5 Gy, 1 mg/kg 24 h prior to irradiation
[18] = Group 9, 11.5 Gy, 1 mg/kg 24 h prior to irradiation
[19] = Group 12, 12.5 Gy, 1 mg/kg 24 h prior to irradiation

methoxypolyethyleneglycol20000-propionyl-L-Isoleucyl-L-Glutamyl-Glycyl-L-Prolyl-L-Threonyl-L-Leucyl-L-Arginyl-L-Glutaminyl-L-2-Naphthylalanyl-L-Leucyl-L-Alanyl-L-Alanyl-L-Arginyl-Sarcosyl-Ne-(methoxypolyethyleneglycol20000-propionyl-L-Isoleucyl-L-Glutamyl-Glycyl-L-Prolyl-L-Threonyl-L-Leucyl-L-Arginyl-L-Glutaminyl-L-2-Naphthylalanyl-L-Leucyl-L-Alanyl-L-Alanyl-L-Arginyl-Sarcosyl-)-Lysinamide ({mPEG 20 kDa-Propionyl}-IEGPTLRQ[2Nal]LAAR[Sar]K-NH2; also: dimer: second identical mPEG-propionyl chain on Lys Nε of C-terminal lysinamide) [RWJ-800088]
Survival Differential (Treatment-Vehicle) [1, 3]: 100%
Survival treatment [1, 3]: 100%
Survival Differential (Treatment-Vehicle) [1, 4]: 90% and 100%
Survival treatment [1, 4]: 90% and 100%
Survival Differential (Treatment-Vehicle) ([1]; 11 Gy, 0.1 mg/kg single dose, Pre −24 hr): 54%
Survival treatment ([1]; 11 Gy, 0.1 mg/kg single dose, Pre −24 hr, 0.1 mg/kg): 54%
Survival treatment ([1]; 11 Gy, 0.1 mg/kg single dose, Pre −24 hr, listed as TPOm, 0.1 mg/kg): 54%
Survival Differential (Treatment-Vehicle) ([1]; 11 Gy, 0.3 mg/kg single dose, Pre −24 hr): 83%
Survival treatment ([1]; 11 Gy, 0.3 mg/kg single dose, Pre −24 hr, 0.3 mg/kg): 83%
Survival treatment ([1]; 11 Gy, 0.3 mg/kg single dose, Pre −24 hr, listed as TPOm, 0.3 mg/kg): 83%
Survival Differential (Treatment-Vehicle) [1, 5]: 17%
Survival treatment [1, 5]: 17%
Survival Differential (Treatment-Vehicle) [1, 6]: 100%
Survival treatment [1, 6]: 100%
Survival treatment ([1]; 11 Gy, 1 mg/kg single dose, Pre −24 hr, 1 mg/kg): 96%
Survival Differential (Treatment-Vehicle) [1, 7]: 71% and 96% and 100%
Survival treatment [1, 7]: 71% and 96% and 100%
Survival Differential (Treatment-Vehicle) ([1]; 11 Gy, 3 mg/kg single dose, Pre −24 hr): 100%
Survival treatment ([1]; 11 Gy, 3 mg/kg single dose, Pre −24 hr, 3 mg/kg): 100%
Survival treatment ([1]; 11 Gy, 3 mg/kg single dose, Pre −24 hr, listed as TPOm, 3 mg/kg): 100%
Survival Differential (Treatment-Vehicle) [1, 8]: 92%
Survival treatment [1, 8]: 92%
Survival Differential (Treatment-Vehicle) [1, 9]: 75%
Survival treatment [1, 9]: 75%
Survival Differential (Treatment-Vehicle) [1, 10]: 88%
Survival treatment [1, 10]: 88%
Survival Differential (Treatment-Vehicle) [1, 11]: 83%
Survival treatment [1, 11]: 83%
Survival Differential (Treatment-Vehicle) [1, 12]: 54%
Survival treatment [1, 12]: 54%
Survival Differential (Treatment-Vehicle) [1, 13]: 46%
Survival treatment [1, 13]: 46%
Survival Differential (Treatment-Vehicle) [1, 14]: 42%
Survival treatment [1, 14]: 42%
Survival Differential (Treatment-Vehicle) [1, 15]: 13%
Survival treatment [1, 15]: 13%
Survival Differential (Treatment-Vehicle) [1, 16]: 1%
Survival treatment [1, 16]: 1%
enhancement in survival efficacy ([1]; CD2F1 male, 1 mg/kg administered 24 h prior to radiation exposure (FIG. 13)): ~100%
survival ([1]; CD2F1 male, 9.35 Gy, 0.3 mg/kg 24 h pre-TBI (FIG. 3A)): 83%
survival, 3-dose regimen ([1]; CD2F1 male, 9.35 Gy, 0.3 mg/kg/dose SC at 24 h+48 h+72 h post-TBI): 50%
survival, 2-dose regimen ([1]; CD2F1 male, 9.35 Gy, 0.3 mg/kg/dose SC at 24 h+48 h post-TBI): 54%
survival ([1]; CD2F1 male, 9.75 Gy, RWJ-800088 treated groups 0.1-3 mg/kg 24 h pre-TBI (FIG. 3B)): 92-100%
percent survival ([1]; CD2F1 male, 10.5 Gy, range of doses 0.1-3 mg/kg 24 h pre-TBI (FIG. 3C)): 90-100%
Effects ([1]; Mice, whole body irradiation, whole wrapped cell: Enhanced survival, mitigation against thrombocytopenia, anemia, reduced adhesion protein expression on endothelial cells): Enhanced survival,
Dose Reduction Factor ([1]; 1 mg/kg 24 h post-TBI (FIG. 14)): 1.05
Dose Reduction Factor ([1]; 1 mg/kg 24 h pre-TBI (FIG. 15)): 1.38
optimum single dose as mitigator of radiation induced mortality in mice ([1]; post-TBI administration): 0.3 to 1.0 mg/kg
DRF value ([2]; 1 mg/kg 24 h prior to irradiation, 95% CI 1.16-2.54): 1.42
LD50 value (radiation dose) for RWJ-800088 treated animals ([2]; 1 mg/kg 24 h prior to irradiation, LD50/30): 12.64 Gy
# Surviving (6 months) [2, 17]: 10/10
# Surviving (12 months) [2, 17]: 5/5
# Surviving (30 days) [2, 17]: 24/24
# Surviving (6 months) [2, 18]: 10/10
# Surviving (12 months) [2, 18]: 5/5
# Surviving (30 days) [2, 18]: 22/24
# Surviving (12 months) [2, 19]: 0/3
# Surviving (30 days) [2, 19]: 11/24
# Surviving (6 months) ([2]; Group 12, 12.5 Gy, two animals were added from 12 Gy): 7/10
